According to patent publication US11014911B2, “CDK2 inhibitors” (Pfizer Inc., priority 2019, dated 2021):

Assays:
[1] = target: CDK2/Cyclin E1 full length (Homo sapiens (Human), UniProt P24941); assay: CDK2/Cyclin E1 full length mobility shift assay; format: biochemical
[2] = target: GSK3β (H350L) (Homo sapiens (Human), UniProt P49841); settings: read-out: GSK3β Ki
GSK3β (H350L), sequence (P49841 whole entry, stated change not applied): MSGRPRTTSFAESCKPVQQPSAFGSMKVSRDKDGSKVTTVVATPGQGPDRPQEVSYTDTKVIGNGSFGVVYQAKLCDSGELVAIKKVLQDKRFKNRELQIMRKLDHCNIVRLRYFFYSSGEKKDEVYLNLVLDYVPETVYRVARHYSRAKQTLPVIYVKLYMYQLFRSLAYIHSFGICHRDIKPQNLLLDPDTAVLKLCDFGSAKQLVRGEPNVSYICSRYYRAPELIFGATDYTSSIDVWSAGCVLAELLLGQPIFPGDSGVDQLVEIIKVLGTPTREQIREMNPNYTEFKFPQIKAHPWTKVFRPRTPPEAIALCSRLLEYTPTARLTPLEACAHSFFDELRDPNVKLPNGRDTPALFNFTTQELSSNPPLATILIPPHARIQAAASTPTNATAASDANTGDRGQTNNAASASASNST
Experimental: The assay was initiated with the addition of ATP, following 15 minutes pre-incubation of enzyme and inhibitor at room temperature in the reaction mixture. The reaction was stopped after 30 minutes at room temperature by the addition of 50 μL of 80 mM EDTA.

SMILES: Cc1cc(CC(=O)Nc2cc([C@H]3CC[C@@H](OC(=O)NC(C)(C)C)C3)[nH]n2)on1 [Example 107]
- Ki [1]: 0.19 nM
- Ki [2]: 27.1 nM

SMILES: CC[C@H](C)NC(=O)O[C@@H]1CC[C@H](c2cc(NC(=O)Cc3cnn(C)n3)n[nH]2)C1 [Example 330, (1R,3S)-3-(3-{[(2-methyl-2H-1,2,3-triazol-4-yl)acetyl]amino}-1H-pyrazol-5-yl)cyclopentyl (2S)-butan-2-ylcarbamate]
- Ki [1]: 0.55 nM
- Ki [2]: 86 nM

SMILES: CCCNC(=O)O[C@H]1CC[C@@H](c2cc(NC(=O)c3cc(C)nn3C)n[nH]2)C1 [Example 172, (1S,3R)-3-(3-{[(1,3-dimethyl-1H-pyrazol-5-yl)carbonyl]amino}-1H-pyrazol-5-yl)cyclopentyl propylcarbamate]
- Ki [1]: 1.2 nM
- Ki [2]: 102 nM

SMILES: CCNC(=O)O[C@@H]1CC[C@H](c2cc(NC(=O)Cc3ccc(OC)nc3)n[nH]2)C1 [Example 231, (1R,3S)-3-(3-{[(6-methoxypyridin-3-yl)acetyl]amino}-1H-pyrazol-5-yl)cyclopentyl ethylcarbamate]
- Ki [1]: 1.18 nM
- Ki [2]: 15.6 nM

SMILES: CCC(C)(C)NC(=O)O[C@@H]1CC[C@H](c2cc(NC(=O)Cc3cnn(C)c3)n[nH]2)C1 [Example 61]
- Ki [1]: 0.11 nM
- Ki [2]: 42.3 nM

SMILES: CCNC(=O)O[C@@H]1CC[C@H](c2cc(NC(=O)Cc3ccno3)n[nH]2)C1 [Example 226, (1R,3S)-3-{3-[(1,2-oxazol-5-ylacetyl)amino]-1H-pyrazol-5-yl}cyclopentyl ethylcarbamate]
- Ki [1]: 3.72 nM
- Ki [2]: 132 nM

SMILES: Cc1cnc(CC(=O)Nc2cc([C@H]3CC[C@@H](OC(=O)NC4(C)CC4)C3)[nH]n2)o1 [Example 5, (1R,3S)-3-(3-{[(5-methyl-1,3-oxazol-2-yl)acetyl]amino}-1H-pyrazol-5-yl)cyclopentyl (1-methylcyclopropyl)carbamate]
- Ki [1]: 0.4 nM
- Ki [2]: 39.4 nM

SMILES: CCNC(=O)O[C@@H]1CC[C@H](c2cc(NC(=O)Cc3cc(F)cc(F)c3)n[nH]2)C1 [Example 233, (1R,3S)-3-(3-{[(3,5-difluorophenyl)acetyl]amino}-1H-pyrazol-5-yl)cyclopentyl ethylcarbamate]
- Ki [1]: 0.85 nM
- Ki [2]: 43.4 nM

SMILES: CC[C@H](C)NC(=O)O[C@@H]1CC[C@H](c2cc(NC(=O)Cc3ccc4nc(C)cn4n3)n[nH]2)C1 [Example 47]
- Ki [1]: 0.11 nM
- Ki [2]: 10.2 nM

SMILES: CCCNC(=O)O[C@@H]1CC[C@H](c2cc(NC(=O)Cc3ccccc3S(=O)(=O)CC)n[nH]2)C1 [Example 205, (1R,3S)-3-[3-({[2-(ethylsulfonyl)phenyl]-acetyl}amino)-1H-pyrazol-5-yl]cyclopentyl propylcarbamate]
- Ki [1]: 0.76 nM
- Ki [2]: 97.7 nM

SMILES: CCCNC(=O)O[C@@H]1CC[C@H](c2cc(NC(=O)c3cc(C)nn3C)n[nH]2)C1 [Example 173, (1R,3S)-3-(3-{[(1,3-dimethyl-1H-pyrazol-5-yl)carbonyl]amino}-1H-pyrazol-5-yl)cyclopentyl propylcarbamate]
- Ki [1]: 2.29 nM
- Ki [2]: > 191 nM

SMILES: Cn1cc(CC(=O)Nc2cc([C@H]3CC[C@@H](OC(=O)NC4(C)CCOCC4)C3)[nH]n2)cn1 [Example 506, (1R,3S)-3-(3-{[(1-methyl-1H-pyrazol-4-yl)acetyl]amino}-1H-pyrazol-5-yl)cyclopentyl (4-methyltetrahydro-2H-pyran-4-yl)carbamate]
- Ki [1]: 0.76 nM
- Ki [2]: 77.6 nM

SMILES: CC[C@H](C)NC(=O)O[C@@H]1CC[C@H](c2cc(NC(=O)Cc3ccc(C(=O)N(C)C)cc3)n[nH]2)C1 [Example 364, (1R,3S)-3-[3-({[4-(dimethylcarbamoyl)-phenyl]acetyl}amino)-1H-pyrazol-5-yl]cyclopentyl (2S)-butan-2-ylcarbamate]
- Ki [1]: 0.82 nM
- Ki [2]: 59.9 nM

SMILES: Cc1cccc(CC(=O)Nc2cc([C@H]3CC[C@@H](OC(=O)NC4(C)CC4)C3)[nH]n2)n1 [Example 426, (1R,3S)-3-(3-{[(6-methylpyridin-2-yl)acetyl]amino}-1H-pyrazol-5-yl)cyclopentyl (1-methylcyclopropyl)carbamate]
- Ki [1]: 0.53 nM
- Ki [2]: 17 nM

SMILES: CC[C@H](C)NC(=O)O[C@@H]1CC[C@H](c2cc(NC(=O)Cc3ccnc(C)c3)n[nH]2)C1 [Example 335, (1R,3S)-3-(3-{[(2-methylpyridin-4-yl)acetyl]amino}-1H-pyrazol-5-yl)cyclopentyl (2S)-butan-2-ylcarbamate]
- Ki [1]: 0.41 nM
- Ki [2]: 23.9 nM

SMILES: COc1cc(CC(=O)Nc2cc([C@@H]3CC[C@H](OC(=O)N[C@H]4CC[C@H](O)CC4)C3)[nH]n2)ccn1 [Example 555, (1S,3R)-3-(3-{[(2-methoxypyridin-4-yl)acetyl]amino}-1H-pyrazol-5-yl)cyclopentyl (trans-4-hydroxycyclohexyl)carbamate]
- Ki [1]: 0.37 nM
- Ki [2]: 3.58 nM

SMILES: CC[C@H](C)NC(=O)O[C@@H]1CC[C@H](c2cc(NC(=O)Cc3cnn(C)c3C)n[nH]2)C1 [Example 337, (1R,3S)-3-(3-{[(1,5-dimethyl-1H-pyrazol-4-yl)acetyl]amino}-1H-pyrazol-5-yl)cyclopentyl (2S)-butan-2-ylcarbamate]
- Ki [1]: 0.58 nM
- Ki [2]: 94.9 nM

SMILES: CC[C@H](C)NC(=O)O[C@@H]1CC[C@H](c2cc(NC(=O)Cc3ccc4ncc(C)n4n3)n[nH]2)C1 [Example 46]
- Ki [1]: 0.18 nM
- Ki [2]: 20.6 nM

SMILES: Cc1coc(CC(=O)Nc2cc([C@H]3CC[C@@H](OC(=O)N[C@@H](C)CC(F)(F)F)C3)[nH]n2)n1 [Example 93]
- Ki [1]: 0.22 nM
- Ki [2]: 7.64 nM

SMILES: COc1cc(CC(=O)Nc2cc([C@H]3CC[C@@H](OC(=O)N4C[C@@](C)(O)[C@@H]4C)C3)[nH]n2)ccn1 [Example 625, (1R,3S)-3-(3-{[(2-methoxypyridin-4-yl)acetyl]amino}-1H-pyrazol-5-yl)cyclopentyl (2S,3R)-3-hydroxy-2,3-dimethylazetidine-1-carboxylate]
- Ki [1]: 0.45 nM
- Ki [2]: 4.97 nM

SMILES: CC[C@H](C)NC(=O)O[C@@H]1CC[C@H](c2cc(NC(=O)c3cc(OC)nn3C)n[nH]2)C1 [Example 41]
- Ki [1]: 0.2 nM
- Ki [2]: 343 nM

SMILES: CC1(C)CCCN1C(=O)O[C@@H]1CC[C@H](c2cc(NC(=O)Cc3cnco3)n[nH]2)C1 [Example 138]
- Ki [1]: 0.23 nM
- Ki [2]: 7.06 nM

SMILES: CC[C@H](C)NC(=O)O[C@@H]1CC[C@H](c2cc(NC(=O)Cc3cn4nc(C)sc4n3)n[nH]2)C1 [Example 359, (1R,3S)-3-(3-{[(2-methylimidazo[2,1-b][1,3,4]thiadiazol-6-yl)acetyl]amino}-1H-pyrazol-5-yl)cyclopentyl (2S)-butan-2-ylcarbamate]
- Ki [1]: 0.39 nM
- Ki [2]: 28.5 nM

SMILES: C[C@H]1CCN1C(=O)O[C@@H]1CC[C@H](c2cc(NC(=O)c3cnnn3C)n[nH]2)C1 [Example 586, (1R,3S)-3-(3-{[(1-methyl-1H-1,2,3-triazol-5-yl)carbonyl]amino}-1H-pyrazol-5-yl)cyclopentyl (2S)-2-methylazetidine-1-carboxylate]
- Ki [1]: 0.88 nM
- Ki [2]: 51.5 nM

SMILES: CC[C@H](C)NC(=O)O[C@@H]1CC[C@H](c2cc(NC(=O)Cc3cc(OC)ncc3S(C)(=O)=O)n[nH]2)C1 [Example 375, (1R,3S)-3-[3-({[2-methoxy-5-(methylsulfonyl)pyridin-4-yl]acetyl}amino)-1H-pyrazol-5-yl]cyclopentyl (2S)-butan-2-ylcarbamate]
- Ki [1]: 0.31 nM
- Ki [2]: 116 nM

SMILES: C[C@H]1CCCN1C(=O)O[C@@H]1CC[C@H](c2cc(NC(=O)Cc3cnc4ncnn4c3)n[nH]2)C1 [Example 141]
- Ki [1]: 0.08 nM
- Ki [2]: 5.75 nM

SMILES: CCCNC(=O)O[C@H]1CC[C@@H](c2cc(NC(=O)Cc3ccccc3S(C)(=O)=O)n[nH]2)C1 [Example 203, (1S,3R)-3-[3-({[2-(methylsulfonyl)phenyl]-acetyl}amino)-1H-pyrazol-5-yl]cyclopentyl propylcarbamate]
- Ki [1]: 0.29 nM
- Ki [2]: 34.2 nM

SMILES: COc1ncc(CC(=O)Nc2cc([C@H]3CC[C@@H](OC(=O)NC4(C)CCOCC4)C3)[nH]n2)s1 [Example 509, (1R,3S)-3-(3-{[(2-methoxy-1,3-thiazol-5-yl)acetyl]amino}-1H-pyrazol-5-yl)cyclopentyl (4-methyltetrahydro-2H-pyran-4-yl)carbamate]
- Ki [1]: 0.5 nM
- Ki [2]: 30.2 nM

SMILES: CCN(C)C(=O)O[C@@H]1CC[C@H](c2cc(NC(=O)Cc3ccnc(OC)c3)n[nH]2)C1 [Example 242, (1R,3S)-3-(3-{[(2-methoxypyridin-4-yl)acetyl]amino}-1H-pyrazol-5-yl)cyclopentyl ethyl(methyl)carbamate]
- Ki [1]: 0.81 nM
- Ki [2]: 9.7 nM

SMILES: COCCn1nccc1C(=O)Nc1cc([C@H]2CC[C@@H](OC(=O)N3CC[C@@H]3C)C2)[nH]n1 [Example 594, (1R,3S)-3-[3-({[1-(2-methoxyethyl)-1H-pyrazol-5-yl]carbonyl}amino)-1H-pyrazol-5-yl]cyclopentyl (2S)-2-methylazetidine-1-carboxylate]
- Ki [1]: 0.62 nM
- Ki [2]: 14.3 nM

SMILES: CC[C@H](C)NC(=O)O[C@@H]1CC[C@H](c2cc(NC(=O)Cc3cc(C)ncc3S(C)(=O)=O)n[nH]2)C1 [Example 373, (1R,3S)-3-[3-({[2-methyl-5-(methylsulfonyl)pyridin-4-yl]acetyl}amino)-1H-pyrazol-5-yl]cyclopentyl (2S)-butan-2-ylcarbamate]
- Ki [1]: 0.47 nM
- Ki [2]: 74.3 nM

SMILES: CC(C)(C)NC(=O)O[C@@H]1CC[C@H](c2cc(NC(=O)Cc3cc(C(F)F)ccn3)n[nH]2)C1 [Example 314, (1R,3S)-3-[3-({[4-(difluoromethyl)pyridin-2-yl]acetyl}amino)-1H-pyrazol-5-yl]cyclopentyl tert-butylcarbamate]
- Ki [1]: 0.41 nM
- Ki [2]: 40.6 nM

SMILES: Cc1cnc(CC(=O)Nc2cc([C@H]3CC[C@@H](OC(=O)NC(C)(C)CC(F)(F)F)C3)[nH]n2)o1 [Example 95]
- Ki [1]: 0.25 nM
- Ki [2]: 32.2 nM

SMILES: CCCNC(=O)O[C@@H]1CC[C@H](c2cc(NC(=O)Cc3ccno3)n[nH]2)C1 [Example 169, (1R,3S)-3-{3-[(1,2-oxazol-5-ylacetyl)amino]-1H-pyrazol-5-yl}cyclopentyl propylcarbamate]
- Ki [1]: 1.63 nM
- Ki [2]: 29.6 nM
